Common to all, as to assay: Kinase inhibitor specificity profiling (Reaction Biology Corporation)
What all share (assay type): biochemical
Common to all, as to parameters: % Enzyme Activity (relative to DMSO controls): concentration or dose not given beside the values

For assay [1], the target named is T1, panel of 370 protein kinases (Homo sapiens, UniProt Q7KZI7).
T1 construct: purchased Reaction Biology Corporation (assay service)
To be noted: 2 h, kinase MARK2/PAR-1Ba; read-out: % Enzyme Activity (relative to DMSO controls).

For assay [2], the target named is T2, panel of 370 protein kinases (Homo sapiens, UniProt P08922).
T2 construct: purchased Reaction Biology Corporation (assay service)
To be noted: 2 h, kinase ROS/ROS1; read-out: % Enzyme Activity (relative to DMSO controls).

For assay [3], the target named is T3, panel of 370 protein kinases (Homo sapiens, UniProt Q9P0L2).
T3 construct: purchased Reaction Biology Corporation (assay service)
Conditions: 2 h, kinase MARK1; read-out: % Enzyme Activity (relative to DMSO controls).

Assay [4] has as its target T4, panel of 370 protein kinases (Homo sapiens, UniProt Q9H0K1).
T4 construct: purchased Reaction Biology Corporation (assay service)
Conditions: 2 h, kinase SIK2; read-out: % Enzyme Activity (relative to DMSO controls).

Assay [5] deals with T5, panel of 370 protein kinases (Homo sapiens, UniProt O95819).
T5 construct: purchased Reaction Biology Corporation (assay service)
To be noted: 2 h, kinase HGK/MAP4K4; read-out: % Enzyme Activity (relative to DMSO controls).

For assay [6], the target named is T6, panel of 370 protein kinases (Homo sapiens, UniProt Q96RG2).
T6 construct: purchased Reaction Biology Corporation (assay service)
Conditions: 2 h, kinase PASK; read-out: % Enzyme Activity (relative to DMSO controls).

Assay [7] has as its target T7, panel of 370 protein kinases (Homo sapiens, UniProt Q16566).
T7 construct: purchased Reaction Biology Corporation (assay service)
Conditions: 2 h, kinase CAMK4; read-out: % Enzyme Activity (relative to DMSO controls).

Assay [8] concerns the target T8, panel of 370 protein kinases (Homo sapiens, UniProt Q92918).
T8 construct: purchased Reaction Biology Corporation (assay service)
To be noted: 2 h, kinase HPK1/MAP4K1; read-out: % Enzyme Activity (relative to DMSO controls).

Assay [9] concerns the target T9, panel of 370 protein kinases (Homo sapiens, UniProt Q16539).
T9 construct: purchased Reaction Biology Corporation (assay service)
To be noted: kinase P38a/MAPK14.

The target of assay [10] is T10, panel of 370 protein kinases (Homo sapiens, UniProt Q9BZL6).
T10 construct: purchased Reaction Biology Corporation (assay service)
Conditions: 2 h, kinase PKD2/PRKD2; read-out: % Enzyme Activity (relative to DMSO controls).

Assay [11] addresses T11, panel of 370 protein kinases (Homo sapiens, UniProt Q04759).
T11 construct: purchased Reaction Biology Corporation (assay service)
To be noted: 2 h, kinase PKCtheta; read-out: % Enzyme Activity (relative to DMSO controls).

In assay [12] the target is T12, panel of 370 protein kinases (Homo sapiens, UniProt Q5TCX8).
T12 construct: purchased Reaction Biology Corporation (assay service)
Conditions: 2 h, kinase MLK4; read-out: % Enzyme Activity (relative to DMSO controls).

For assay [13], the target named is T13, panel of 370 protein kinases (Homo sapiens, UniProt Q9H2X6).
T13 construct: purchased Reaction Biology Corporation (assay service)
Conditions: 2 h, kinase HIPK2; read-out: % Enzyme Activity (relative to DMSO controls).

In assay [14] the target is T14, panel of 370 protein kinases (Homo sapiens, UniProt Q86UE8).
T14 construct: purchased Reaction Biology Corporation (assay service)
Conditions: 2 h, kinase TLK2; read-out: % Enzyme Activity (relative to DMSO controls).

Assay [15] deals with T15, panel of 370 protein kinases (Homo sapiens, UniProt Q96PN8).
T15 construct: purchased Reaction Biology Corporation (assay service)
To be noted: 2 h, kinase TSSK3/STK22C; read-out: % Enzyme Activity (relative to DMSO controls).

For assay [16], the target named is T16, panel of 370 protein kinases (Homo sapiens, UniProt Q96SB4).
T16 construct: purchased Reaction Biology Corporation (assay service)
To be noted: 2 h, kinase SRPK1; read-out: % Enzyme Activity (relative to DMSO controls).

In assay [17] the target is T17, panel of 370 protein kinases (Homo sapiens, UniProt P05129).
T17 construct: purchased Reaction Biology Corporation (assay service)
Conditions: 2 h, kinase PKCg; read-out: % Enzyme Activity (relative to DMSO controls).

The target of assay [18] is T18, panel of 370 protein kinases (Homo sapiens, UniProt O95835).
T18 construct: purchased Reaction Biology Corporation (assay service)
To be noted: 2 h, kinase LATS1; read-out: % Enzyme Activity (relative to DMSO controls).

Assay [19] deals with T19, panel of 370 protein kinases (Homo sapiens, UniProt Q00526).
T19 construct: purchased Reaction Biology Corporation (assay service)

Assay [20] concerns the target T20, panel of 370 protein kinases (Homo sapiens, UniProt Q07002).
T20 construct: purchased Reaction Biology Corporation (assay service)
To be noted: 2 h, kinase CDK18/cyclin Y (PCTK3); read-out: % Enzyme Activity (relative to DMSO controls).

The target in assay [21] is T21, panel of 370 protein kinases (Homo sapiens, UniProt O75582).
T21 construct: purchased Reaction Biology Corporation (assay service)
Conditions: 2 h, kinase MSK1/RPS6KA5; read-out: % Enzyme Activity (relative to DMSO controls).

These results are taken from article PMC9133015 (Nature Communications, 2022).

Where “and” joins values, the source holds several entries; their conditions need not be identical. Equal entries are not always repeated.

T19 sequence (Q00526 whole entry): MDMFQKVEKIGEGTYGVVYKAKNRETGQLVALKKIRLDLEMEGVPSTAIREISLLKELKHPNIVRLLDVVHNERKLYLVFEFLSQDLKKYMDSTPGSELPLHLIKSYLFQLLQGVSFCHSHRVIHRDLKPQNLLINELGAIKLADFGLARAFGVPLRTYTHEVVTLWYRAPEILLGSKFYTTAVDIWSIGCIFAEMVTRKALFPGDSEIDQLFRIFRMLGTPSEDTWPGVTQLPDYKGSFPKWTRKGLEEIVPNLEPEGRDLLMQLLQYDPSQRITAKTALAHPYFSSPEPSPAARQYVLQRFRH
T9 sequence (Q16539 whole entry): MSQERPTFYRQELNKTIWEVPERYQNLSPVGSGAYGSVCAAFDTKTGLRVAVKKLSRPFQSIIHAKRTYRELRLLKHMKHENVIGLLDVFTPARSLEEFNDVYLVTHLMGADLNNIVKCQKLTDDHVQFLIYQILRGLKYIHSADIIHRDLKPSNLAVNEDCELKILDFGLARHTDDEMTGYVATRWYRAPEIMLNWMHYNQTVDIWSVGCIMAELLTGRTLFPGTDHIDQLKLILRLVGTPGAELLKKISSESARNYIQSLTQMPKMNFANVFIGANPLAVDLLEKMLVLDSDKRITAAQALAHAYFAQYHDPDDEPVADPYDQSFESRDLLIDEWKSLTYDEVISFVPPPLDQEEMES
T16 sequence (Q96SB4 whole entry): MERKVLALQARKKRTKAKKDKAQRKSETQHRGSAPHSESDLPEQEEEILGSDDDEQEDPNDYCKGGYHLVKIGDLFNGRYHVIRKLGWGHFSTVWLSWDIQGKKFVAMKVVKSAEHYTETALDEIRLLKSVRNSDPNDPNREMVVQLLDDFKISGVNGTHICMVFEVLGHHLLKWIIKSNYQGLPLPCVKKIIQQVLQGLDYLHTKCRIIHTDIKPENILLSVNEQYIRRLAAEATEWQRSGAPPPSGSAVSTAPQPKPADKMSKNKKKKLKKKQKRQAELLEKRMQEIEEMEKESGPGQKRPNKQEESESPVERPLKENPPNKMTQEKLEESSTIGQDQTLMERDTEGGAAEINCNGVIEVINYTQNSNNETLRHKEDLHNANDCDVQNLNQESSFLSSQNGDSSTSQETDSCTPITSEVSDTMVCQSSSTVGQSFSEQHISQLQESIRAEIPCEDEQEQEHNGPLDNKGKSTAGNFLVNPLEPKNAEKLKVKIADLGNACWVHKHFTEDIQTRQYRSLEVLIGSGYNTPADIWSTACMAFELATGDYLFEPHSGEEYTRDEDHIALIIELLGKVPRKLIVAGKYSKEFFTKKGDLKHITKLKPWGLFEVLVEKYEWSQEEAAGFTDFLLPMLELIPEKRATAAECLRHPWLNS
T2 sequence (P08922 28-2347): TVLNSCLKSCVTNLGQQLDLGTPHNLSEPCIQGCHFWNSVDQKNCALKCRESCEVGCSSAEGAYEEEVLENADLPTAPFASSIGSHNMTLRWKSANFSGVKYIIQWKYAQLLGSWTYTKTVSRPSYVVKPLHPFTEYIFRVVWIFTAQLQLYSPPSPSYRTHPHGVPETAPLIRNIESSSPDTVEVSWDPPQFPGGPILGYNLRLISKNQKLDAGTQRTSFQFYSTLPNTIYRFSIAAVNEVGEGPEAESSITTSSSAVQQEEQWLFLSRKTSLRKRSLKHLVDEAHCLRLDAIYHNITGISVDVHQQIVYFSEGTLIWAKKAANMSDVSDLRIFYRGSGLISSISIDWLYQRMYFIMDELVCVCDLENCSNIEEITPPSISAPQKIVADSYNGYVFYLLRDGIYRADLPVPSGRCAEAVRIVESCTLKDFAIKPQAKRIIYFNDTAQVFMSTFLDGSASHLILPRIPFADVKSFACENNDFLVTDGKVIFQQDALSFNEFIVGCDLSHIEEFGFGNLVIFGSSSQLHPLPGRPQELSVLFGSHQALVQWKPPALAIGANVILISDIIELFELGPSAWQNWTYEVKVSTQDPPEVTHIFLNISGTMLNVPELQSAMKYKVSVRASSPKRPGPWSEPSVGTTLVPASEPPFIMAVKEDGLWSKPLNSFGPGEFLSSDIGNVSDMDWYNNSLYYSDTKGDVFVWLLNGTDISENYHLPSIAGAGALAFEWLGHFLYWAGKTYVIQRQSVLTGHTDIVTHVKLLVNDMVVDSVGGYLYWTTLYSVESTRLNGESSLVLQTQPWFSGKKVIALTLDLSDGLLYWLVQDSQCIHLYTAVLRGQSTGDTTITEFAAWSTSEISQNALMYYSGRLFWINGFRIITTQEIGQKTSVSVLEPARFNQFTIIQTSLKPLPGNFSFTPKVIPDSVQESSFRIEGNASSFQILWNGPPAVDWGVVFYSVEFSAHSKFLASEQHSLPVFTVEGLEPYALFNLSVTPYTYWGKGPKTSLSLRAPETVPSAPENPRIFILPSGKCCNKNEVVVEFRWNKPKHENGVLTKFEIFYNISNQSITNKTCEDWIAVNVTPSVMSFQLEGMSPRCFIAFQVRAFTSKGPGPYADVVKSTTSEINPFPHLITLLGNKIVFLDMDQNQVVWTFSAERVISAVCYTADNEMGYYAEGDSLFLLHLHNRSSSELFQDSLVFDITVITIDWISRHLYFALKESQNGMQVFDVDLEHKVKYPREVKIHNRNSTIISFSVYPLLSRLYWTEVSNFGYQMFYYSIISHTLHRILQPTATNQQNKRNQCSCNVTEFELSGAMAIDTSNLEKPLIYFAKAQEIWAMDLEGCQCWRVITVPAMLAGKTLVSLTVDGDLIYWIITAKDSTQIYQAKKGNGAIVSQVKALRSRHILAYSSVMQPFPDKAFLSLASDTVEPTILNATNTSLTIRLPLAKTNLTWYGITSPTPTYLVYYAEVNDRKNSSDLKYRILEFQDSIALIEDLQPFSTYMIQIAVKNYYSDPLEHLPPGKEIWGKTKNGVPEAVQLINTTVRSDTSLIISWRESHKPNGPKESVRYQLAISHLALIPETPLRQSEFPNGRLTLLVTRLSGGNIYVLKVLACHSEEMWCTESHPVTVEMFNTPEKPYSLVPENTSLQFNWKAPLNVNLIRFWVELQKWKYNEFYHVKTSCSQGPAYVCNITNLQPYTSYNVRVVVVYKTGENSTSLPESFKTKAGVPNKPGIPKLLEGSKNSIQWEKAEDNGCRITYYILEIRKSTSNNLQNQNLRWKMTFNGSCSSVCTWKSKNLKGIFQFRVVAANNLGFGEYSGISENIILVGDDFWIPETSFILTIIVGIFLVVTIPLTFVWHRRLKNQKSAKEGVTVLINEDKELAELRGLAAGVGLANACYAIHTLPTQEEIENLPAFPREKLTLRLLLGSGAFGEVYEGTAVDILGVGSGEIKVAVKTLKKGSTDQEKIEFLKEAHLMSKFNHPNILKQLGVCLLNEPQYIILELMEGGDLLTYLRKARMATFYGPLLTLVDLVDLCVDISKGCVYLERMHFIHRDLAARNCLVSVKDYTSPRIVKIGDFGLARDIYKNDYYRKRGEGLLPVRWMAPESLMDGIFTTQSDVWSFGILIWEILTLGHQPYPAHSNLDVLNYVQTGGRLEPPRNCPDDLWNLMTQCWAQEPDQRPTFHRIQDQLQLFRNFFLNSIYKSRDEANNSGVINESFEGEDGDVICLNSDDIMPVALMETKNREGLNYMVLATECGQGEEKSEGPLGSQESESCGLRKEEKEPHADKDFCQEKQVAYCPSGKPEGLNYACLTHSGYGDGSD
T8 sequence (Q92918 whole entry): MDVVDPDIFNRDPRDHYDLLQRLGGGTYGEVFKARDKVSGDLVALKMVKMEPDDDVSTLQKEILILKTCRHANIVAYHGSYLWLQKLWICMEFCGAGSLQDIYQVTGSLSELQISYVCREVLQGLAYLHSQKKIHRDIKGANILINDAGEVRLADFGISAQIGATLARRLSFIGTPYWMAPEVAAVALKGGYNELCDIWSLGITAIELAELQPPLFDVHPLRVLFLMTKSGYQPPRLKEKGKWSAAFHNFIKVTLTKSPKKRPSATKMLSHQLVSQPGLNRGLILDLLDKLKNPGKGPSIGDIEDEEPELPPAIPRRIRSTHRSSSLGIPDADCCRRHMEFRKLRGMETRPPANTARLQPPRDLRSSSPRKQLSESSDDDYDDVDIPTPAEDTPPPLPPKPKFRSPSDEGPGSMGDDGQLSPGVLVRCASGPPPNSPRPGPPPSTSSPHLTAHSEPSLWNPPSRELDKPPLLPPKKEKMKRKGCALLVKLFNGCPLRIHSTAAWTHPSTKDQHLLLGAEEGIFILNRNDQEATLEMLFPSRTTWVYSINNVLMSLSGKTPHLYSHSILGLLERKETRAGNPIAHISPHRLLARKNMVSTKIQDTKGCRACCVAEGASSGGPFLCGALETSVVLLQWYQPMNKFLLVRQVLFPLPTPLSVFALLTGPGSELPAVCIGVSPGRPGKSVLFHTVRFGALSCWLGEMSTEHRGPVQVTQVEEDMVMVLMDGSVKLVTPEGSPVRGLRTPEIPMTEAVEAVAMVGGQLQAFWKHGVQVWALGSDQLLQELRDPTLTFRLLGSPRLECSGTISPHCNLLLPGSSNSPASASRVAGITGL
T15 sequence (Q96PN8 whole entry): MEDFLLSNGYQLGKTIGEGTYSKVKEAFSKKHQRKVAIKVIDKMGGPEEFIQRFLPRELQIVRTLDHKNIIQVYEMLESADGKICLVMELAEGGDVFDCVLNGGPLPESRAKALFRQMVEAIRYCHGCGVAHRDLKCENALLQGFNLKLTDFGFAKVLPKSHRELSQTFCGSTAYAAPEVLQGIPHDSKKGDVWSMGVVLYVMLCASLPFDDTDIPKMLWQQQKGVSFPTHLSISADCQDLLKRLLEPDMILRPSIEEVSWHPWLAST

For the compound `CCN1CCN(C(=O)c2ccc(Nc3ncc(F)c(-c4ccc5nc(N(C)C)sc5c4)n3)nc2)CC1` [YK-2-69], the remaining activity at 1 µM stood at 83.2% in assay [1]; 79.3% in [2]; 88% in assay [3]; 95.6% in assay [4]; 86.8% in assay [5]; 98.3% in assay [6]. Besides, the remaining activity at 1 µM in assay [7] worked out at 101%; in assay [8], 104%; in assay [10], 80.8%; in [11], 103%; in assay [12] it was 104%; in assay [13], 28.1%. Moreover, the remaining activity at 1 µM is 91.4% in assay [14]; 94.6% in assay [15]; 91.8% in assay [16]; 90.9% in assay [17]; 95.2% in assay [18]; 99.1% in assay [20]. In addition, in assay [21], the remaining activity at 1 µM turned out to be 115%. Moreover, the “% Enzyme Activity (relative to DMSO controls)” value was 99.00% and 95.59% in assay [9]; 106.69% and 103.49% in assay [19] (kinase CDK3/cyclin E); 101.82% and 90.67% in [19] (kinase CDK3/cyclin E2).
